The source made the active and inactive calls. The calls are words filed in the database; no cut-off is given here.
Key:
Cavia porcellus = species on record: Cavia porcellus; test: In vitro potency relative to PGE-2 (=100 for uterine stimulant activity in guinea pig at 0.1-10 ug/mL concentration); assay type: functional
Mus musculus [1] = test: In vivo potency relative to PGE-2 =100 for diarrheal activity in conscious mice.; assay type: functional
Mus musculus [2] = test: In vivo potency relative to PGE-2 =100 for diarrheal activity in conscious mice at 0.3-3.0 mg/kg, iv; No effect; assay type: functional, organism-based

Compound	Relative potency (Cavia porcellus)	Relative potency (Mus musculus [1])	Relative potency (Mus musculus [2])
O=C(O)CCC/C=C\C[C@@H]1C(/C=C/[C@@H](O)[C@H]2CCc3ccccc3O2)[C@H](O)C[C@@H]1O (stereo partly drawn)	19	310	
O=C(O)CCC/C=C\C[C@@H]1C(/C=C/[C@@H](O)[C@H]2CCc3ccccc3C2)[C@H](O)C[C@@H]1O (stereo partly drawn)	2	10	
O=C(O)CCC/C=C\C[C@H]1C(=O)C[C@@H](O)C1/C=C/[C@H](O)C1Cc2ccccc2O1 (stereo partly drawn)	19	15	
O=C(O)CCC/C=C\C[C@@H]1C(/C=C/[C@H](O)C2Cc3ccccc3O2)[C@H](O)C[C@@H]1O (stereo partly drawn)	0.3	15	
O=C(O)CCC/C=C\C[C@@H]1C(/C=C/[C@H](O)[C@@H]2CCc3ccccc3O2)[C@H](O)C[C@@H]1O (stereo partly drawn)	0.4		
O=C(O)CCC/C=C\C[C@H]1C(=O)C[C@@H](O)C1/C=C/[C@H](O)C1Cc2ccccc2C1 (stereo partly drawn)	0.3		inactive
O=C(O)CCC/C=C\C[C@@H]1C(/C=C/[C@@H](O)[C@@H]2CCc3ccccc3O2)[C@H](O)C[C@@H]1O (stereo partly drawn)	25	1100	
O=C(O)CCC/C=C\C[C@H]1C(=O)C[C@@H](O)C1/C=C/[C@H](O)[C@H]1CCc2ccccc2O1 (stereo partly drawn)	3		
O=C(O)CCC/C=C\C[C@H]1C(=O)C[C@@H](O)C1/C=C/[C@@H](O)[C@@H]1CCc2ccccc2C1 (stereo partly drawn)	36	40	
O=C(O)CCC/C=C\C[C@@H]1C(/C=C/[C@@H](O)[C@@H]2Cc3ccccc3O2)[C@H](O)C[C@@H]1O (stereo partly drawn)	5	190	
O=C(O)CCC/C=C\C[C@H]1C(=O)C[C@@H](O)C1/C=C/[C@H](O)[C@@H]1CCc2ccccc2C1 (stereo partly drawn)	2		
O=C(O)CCC/C=C\C[C@@H]1C(/C=C/[C@@H](O)C2Cc3ccccc3C2)[C@H](O)C[C@@H]1O (stereo partly drawn)	0.3	50	
O=C(O)CCC/C=C\C[C@@H]1C(/C=C/[C@H](O)[C@H]2CCc3ccccc3C2)[C@H](O)C[C@@H]1O (stereo partly drawn)	0.1		
O=C(O)CCC/C=C\C[C@@H]1C(/C=C/[C@@H](O)COc2ccccc2)[C@H](O)C[C@@H]1O (stereo partly drawn)	15	150	
O=C(O)CCC/C=C\C[C@@H]1C(/C=C/[C@@H](O)[C@@H]2CCc3ccccc3C2)[C@H](O)C[C@@H]1O (stereo partly drawn)	18	40	
O=C(O)CCC/C=C\C[C@H]1C(=O)C[C@@H](O)C1/C=C/[C@@H](O)[C@H]1CCc2ccccc2O1 (stereo partly drawn)	66	270	
O=C(O)CCC/C=C\C[C@H]1C(=O)C[C@@H](O)C1/C=C/[C@@H](O)[C@H]1Cc2ccccc2O1 (stereo partly drawn)	0.1		inactive
O=C(O)CCC/C=C\C[C@@H]1C(/C=C/[C@H](O)C2Cc3ccccc3C2)[C@H](O)C[C@@H]1O (stereo partly drawn)	0.07		inactive
O=C(O)CCC/C=C\C[C@H]1C(=O)C[C@@H](O)C1/C=C/[C@@H](O)[C@@H]1Cc2ccccc2O1 (stereo partly drawn)	18	>250	
O=C(O)CCC/C=C\C[C@H]1C(=O)C[C@@H](O)C1/C=C/[C@@H](O)[C@@H]1CCc2ccccc2O1 (stereo partly drawn)	130	730	
O=C(O)CCC/C=C\C[C@H]1C(=O)C[C@@H](O)C1/C=C/[C@@H](O)[C@H]1CCc2ccccc2C1 (stereo partly drawn)	44		inactive
O=C(O)CCC/C=C\C[C@@H]1C(/C=C/[C@H](O)[C@@H]2CCc3ccccc3C2)[C@H](O)C[C@@H]1O (stereo partly drawn)	0.1		
O=C(O)CCC/C=C\C[C@H]1C(=O)C[C@@H](O)C1/C=C/[C@H](O)[C@@H]1CCc2ccccc2O1 (stereo partly drawn)	7		
O=C(O)CCC/C=C\C[C@H]1C(=O)C[C@@H](O)C1/C=C/[C@@H](O)C1Cc2ccccc2C1 (stereo partly drawn)	6	25	
O=C(O)CCC/C=C\C[C@@H]1C(/C=C/[C@H](O)COc2ccccc2)[C@H](O)C[C@@H]1O (stereo partly drawn)	300		
O=C(O)CCC/C=C\C[C@@H]1C(/C=C/[C@@H](O)[C@H]2Cc3ccccc3O2)[C@H](O)C[C@@H]1O (stereo partly drawn)	0.2	10	
O=C(O)CCC/C=C\C[C@@H]1C(/C=C/[C@H](O)[C@H]2CCc3ccccc3O2)[C@H](O)C[C@@H]1O (stereo partly drawn)	0.8		
O=C(O)CCC/C=C\C[C@H]1C(=O)C[C@@H](O)C1/C=C/[C@H](O)[C@H]1CCc2ccccc2C1 (stereo partly drawn)	0.1		inactive

Source: ChEMBL document CHEMBL1122339, “Structure-activity studies of configurationally rigid arylprostaglandins” (1983)
